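48-hour exposure; five concentrations; linearly interpolated endpoints. GI50 marks 50% less growth.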 Activity calls are given as the source filed them. Rule as the data show it: active = GI50 up to about 1.1 µM and inactive = higher.
How the values were obtained:
Assay in all cases: growth of human tumour cells (NCI), 48 h
U-251 = system: U-251
LOX IMVI = system: LOX IMVI
OVCAR-3 = system: OVCAR-3
EKVX = system: EKVX
A498 = system: A498
CAKI-1 = system: CAKI-1
RPMI-8226 = system: RPMI-8226
SK-MEL-5 = system: SK-MEL-5
HT-29 = system: HT-29
SN12C = system: SN12C
SK-MEL-28 = system: SK-MEL-28
SF-295 = system: SF-295
HCT-15 = system: HCT-15
SF-268 = system: SF-268
HCC 2998 = system: HCC 2998
HOP-62 = system: HOP-62
HL-60 = system: HL-60
SW-620 = system: SW-620
KM12 = system: KM12
OVCAR-5 = system: OVCAR-5
RXF 393 = system: RXF 393
SNB-75 = system: SNB-75
DLD-1 = system: DLD-1
UACC-257 = system: UACC-257
NCI-H522 = system: NCI-H522
K562 = system: K562
DMS-273 = system: DMS-273
Malme-3M = system: Malme-3M
MCF7 = system: MCF7
SK-MEL-2 = system: SK-MEL-2
MOLT-4 = system: MOLT-4
CCRF-CEM = system: CCRF-CEM
NCI-H23 = system: NCI-H23
NCI-H460 = system: NCI-H460
SF-539 = system: SF-539
SNB-19 = system: SNB-19
Hs-578T = system: Hs-578T
PC-3 = system: PC-3
MDA-MB-231 = system: MDA-MB-231
ACHN = system: ACHN
MDA-MB-435 = system: MDA-MB-435
OVCAR-8 = system: OVCAR-8
SK-OV-3 = system: SK-OV-3
HCT-116 = system: HCT-116
IGROV-1 = system: IGROV-1
786-0 = system: 786-0
SR = system: SR
HOP-92 = system: HOP-92
NCI/ADR-RES = system: NCI/ADR-RES
T47D = system: T47D
TK-10 = system: TK-10
OVCAR-4 = system: OVCAR-4
DU-145 = system: DU-145
M14 = system: M14
MDA-N = system: MDA-N
A549 = system: A549
UACC-62 = system: UACC-62
UO-31 = system: UO-31
NCI-H226 = system: NCI-H226
COLO 205 = system: COLO 205
BT-549 = system: BT-549

With `CCN(CC)CC[n+]1ccc2c(C)c3[nH]c4ccccc4c3c(C)c2c1` the GI50 (U-251) was 0.173 µM (active), the GI50 (LOX IMVI) was 0.399 µM (active) and the GI50 (OVCAR-3) was 0.213 µM (active). The GI50 (EKVX) was 0.982 µM (active), the GI50 (A498) was 5.19 µM (inactive) and the GI50 (CAKI-1) was 1.11 µM (active). For the same compound, the GI50 (RPMI-8226) was 0.644 µM (active), the GI50 (SK-MEL-5) was 0.337 µM (active) and the GI50 (HT-29) was 0.518 µM (active). For the same compound, the GI50 (SN12C) was 0.222 µM (active), the GI50 (SK-MEL-28) was 0.352 µM (active) and the GI50 (SF-295) was 0.701 µM (active). For the same compound, the GI50 (HCT-15) was 16.3 µM, the GI50 (SF-268) was 0.222 µM (active) and the GI50 (HCC 2998) was 0.319 µM (active). For the same compound, the GI50 (HOP-62) was 0.953 µM (active), the GI50 (HL-60) was 0.31 µM (active) and the GI50 (SW-620) was 0.445 µM (active). For the same compound, the GI50 (KM12) was 0.385 µM (active), the GI50 (OVCAR-5) was 1.14 µM (inactive) and the GI50 (RXF 393) was 2.09 µM (inactive). For the same compound, the GI50 (SNB-75) was 0.251 µM (active), the GI50 (DLD-1) was 1.67 µM (inactive) and the GI50 (UACC-257) was 0.565 µM (active). The GI50 (NCI-H522) was 0.211 µM (active), the GI50 (K562) was 0.182 µM (active) and the GI50 (DMS-273) was 0.315 µM (active). The GI50 (Malme-3M) was 0.583 µM (active), the GI50 (MCF7) was 0.678 µM (active) and the GI50 (SK-MEL-2) was 0.465 µM (active). For the same compound, the GI50 (MOLT-4) was 0.182 µM (active), the GI50 (CCRF-CEM) was 0.219 µM (active) and the GI50 (NCI-H23) was 0.292 µM (active). The GI50 (NCI-H460) was 0.451 µM (active), the GI50 (SF-539) was 0.413 µM (active) and the GI50 (SNB-19) was 0.17 µM (active).

In the case of `O=Cc1cc2c(o1)C(=O)c1ccccc1C2=O`, the GI50 (Hs-578T) is reported as 0.251 µM (active), the GI50 (U-251) is reported as 0.851 µM (active) and the GI50 (LOX IMVI) is reported as 0.267 µM (active). The GI50 (OVCAR-3) was 0.358 µM (active), the GI50 (EKVX) was 2.58 µM (inactive) and the GI50 (A498) was 4.78 µM (inactive). For the same compound, the GI50 (CAKI-1) was 2.84 µM (inactive), the GI50 (RPMI-8226) was 1.82 µM (inactive) and the GI50 (PC-3) was 2.53 µM (inactive). For the same compound, the GI50 (MDA-MB-231) was 3.07 µM (inactive), the GI50 (SK-MEL-5) was 0.233 µM (active) and the GI50 (HT-29) was 0.581 µM (active). The GI50 (SN12C) was 0.279 µM (active), the GI50 (SK-MEL-28) was 0.405 µM (active) and the GI50 (SF-295) was 0.367 µM (active). The GI50 (HCT-15) was 0.281 µM, the GI50 (SF-268) was 1.55 µM (inactive) and the GI50 (HCC 2998) was 1.88 µM (inactive). The GI50 (ACHN) was 1.98 µM (inactive), the GI50 (MDA-MB-435) was 0.197 µM (active) and the GI50 (HOP-62) was 0.834 µM (active). For the same compound, the GI50 (OVCAR-8) was 1.26 µM (inactive), the GI50 (SK-OV-3) was 2.85 µM (inactive) and the GI50 (HL-60) was 0.286 µM (active). For the same compound, the GI50 (HCT-116) was 0.312 µM (active), the GI50 (IGROV-1) was 1.33 µM (inactive) and the GI50 (786-0) was 1.25 µM (inactive). For the same compound, the GI50 (SR) was 0.459 µM (active), the GI50 (SW-620) was 0.318 µM (active) and the GI50 (HOP-92) was 1.83 µM (inactive). For the same compound, the GI50 (KM12) was 1.07 µM (active), the GI50 (NCI/ADR-RES) was 1.81 µM (inactive) and the GI50 (T47D) was 1.72 µM (inactive). The GI50 (OVCAR-5) was 1.77 µM (inactive), the GI50 (TK-10) was 2.7 µM (inactive) and the GI50 (OVCAR-4) was 1.17 µM (inactive). The GI50 (DU-145) was 0.212 µM (active), the GI50 (RXF 393) was 1.35 µM (inactive) and the GI50 (SNB-75) was 0.434 µM (active). For the same compound, the GI50 (M14) was 0.192 µM (active), the GI50 (UACC-257) was 0.569 µM (active) and the GI50 (MDA-N) was 0.192 µM (active). For the same compound, the GI50 (A549) was 1.32 µM (inactive), the GI50 (NCI-H522) was 1.48 µM (inactive) and the GI50 (K562) was 1.46 µM (inactive). For the same compound, the GI50 (Malme-3M) was 0.153 µM (active), the GI50 (MCF7) was 0.213 µM (active) and the GI50 (UACC-62) was 1.78 µM (inactive). The GI50 (SK-MEL-2) was 0.601 µM (active), the GI50 (UO-31) was 1.42 µM (inactive) and the GI50 (NCI-H226) was 1.07 µM (active). For the same compound, the GI50 (MOLT-4) was 2.06 µM (inactive), the GI50 (CCRF-CEM) was 2.09 µM (inactive) and the GI50 (NCI-H23) was 0.191 µM (active). For the same compound, the GI50 (NCI-H460) was 0.794 µM (active), the GI50 (COLO 205) was 1.44 µM (inactive) and the GI50 (BT-549) was 0.757 µM (active). The GI50 (SF-539) was 0.427 µM (active) and the GI50 (SNB-19) was 0.656 µM (active).

In the case of `Cc1ccc(NC(=O)CSc2nc(O)nc3[nH]cnc23)cc1`, the GI50 (Hs-578T) is reported as 68.9 µM (inactive), the GI50 (U-251) is reported as 41.1 µM (inactive) and the GI50 (LOX IMVI) is reported as 35.6 µM (inactive). The GI50 (OVCAR-3) was > 100 µM (inactive), the GI50 (EKVX) was > 100 µM (inactive) and the GI50 (A498) was 28.2 µM (inactive). For the same compound, the GI50 (CAKI-1) was > 100 µM (inactive), the GI50 (RPMI-8226) was 50.5 µM (inactive) and the GI50 (PC-3) was 97.5 µM (inactive). For the same compound, the GI50 (MDA-MB-231) was > 100 µM (inactive), the GI50 (SK-MEL-5) was 86.9 µM (inactive) and the GI50 (HT-29) was > 100 µM (inactive). For the same compound, the GI50 (SN12C) was 30.5 µM (inactive), the GI50 (SK-MEL-28) was > 100 µM (inactive) and the GI50 (SF-295) was 62.7 µM (inactive). For the same compound, the GI50 (HCT-15) was over 100 µM, the GI50 (SF-268) was 48.5 µM (inactive) and the GI50 (HCC 2998) was > 100 µM (inactive). The GI50 (ACHN) was > 100 µM (inactive), the GI50 (MDA-MB-435) was 53.8 µM (inactive) and the GI50 (HOP-62) was 48.5 µM (inactive). For the same compound, the GI50 (OVCAR-8) was > 100 µM (inactive), the GI50 (SK-OV-3) was > 100 µM (inactive) and the GI50 (HL-60) was > 100 µM (inactive). The GI50 (HCT-116) was > 100 µM (inactive), the GI50 (IGROV-1) was > 100 µM (inactive) and the GI50 (786-0) was 44.6 µM (inactive). For the same compound, the GI50 (SR) was 35.6 µM (inactive), the GI50 (SW-620) was 66.2 µM (inactive) and the GI50 (HOP-92) was > 100 µM (inactive). The GI50 (KM12) was > 100 µM (inactive), the GI50 (NCI/ADR-RES) was 80.2 µM (inactive) and the GI50 (T47D) was > 100 µM (inactive). For the same compound, the GI50 (OVCAR-5) was 49.7 µM (inactive), the GI50 (TK-10) was > 100 µM (inactive) and the GI50 (OVCAR-4) was > 100 µM (inactive). For the same compound, the GI50 (DU-145) was > 100 µM (inactive), the GI50 (RXF 393) was > 100 µM (inactive) and the GI50 (SNB-75) was > 100 µM (inactive). The GI50 (M14) was > 100 µM (inactive), the GI50 (UACC-257) was > 100 µM (inactive) and the GI50 (MDA-N) was 90.2 µM (inactive). The GI50 (A549) was > 100 µM (inactive), the GI50 (NCI-H522) was > 100 µM (inactive) and the GI50 (K562) was > 100 µM (inactive). For the same compound, the GI50 (Malme-3M) was > 100 µM (inactive), the GI50 (MCF7) was 45.2 µM (inactive) and the GI50 (UACC-62) was > 100 µM (inactive). The GI50 (SK-MEL-2) was > 100 µM (inactive), the GI50 (UO-31) was > 100 µM (inactive) and the GI50 (NCI-H226) was 33.8 µM (inactive). The GI50 (MOLT-4) was 58.7 µM (inactive), the GI50 (CCRF-CEM) was 27.7 µM (inactive) and the GI50 (NCI-H23) was > 100 µM (inactive). The GI50 (NCI-H460) was > 100 µM (inactive), the GI50 (COLO 205) was > 100 µM (inactive) and the GI50 (BT-549) was 54.5 µM (inactive). For the same compound, the GI50 (SF-539) was 24 µM (inactive) and the GI50 (SNB-19) was 68.7 µM (inactive).

From ChEMBL document CHEMBL1201862, “PubChem BioAssay data set” (2004)
